The values that follow come from patent publication US20250066329A1, “PIPERIDINYLPYRIDINYLCARBONITRILE DERIVATIVES AS INHIBITORS OF GLUTAMINYL-PEPTIDE CYCLOTRANSFERASE AND GLUTAMINYL-PEPTIDE CYCLOTRANSFERASE LIKE PROTEIN” (Boehringer Ingelheim International GmbH, priority 2023, published 2025).

Series [1] in a line: Assay C: permeability in CACO-2 cells. In kind it is in vitro ADME. The following applies: human, pH 7.2; for efflux ratio at 2 h: Caco-2, permeability B-A/permeability A-B; for Papp A→B at 2 h: Caco-2, apical to basolateral. As for the experimental part: Caco-2 cells (1-2×10^5 cells/1 cm^2 area) are seeded on filter inserts (Costar transwell polycarbonate or PET filters, 0.4 µm pore size) and cultured (DMEM) for 10 to 25 days. Compounds are dissolved in appropriate solvent (like DMSO, 1-20 mM stock solutions). […] The transport solution (TL) is applied to the apical or basolateral donor side for measuring A-B or B-A permeability (3 filter replicates), respectively. Samples are collected at the start and end of experiment from the donor and at various time intervals for up to 2 hours also from the receiver side for concentration measurement by HPLC-MS/MS or scintillation counting. Sampled receiver volumes are replaced with fresh receiver solution.
Efflux ratio (ER)=permeability B-A/permeability A-B
On the technique in general: Caco-2 monolayers are a common model of the intestinal barrier.

For series [2], the system named is SIRPα signalling induced by Raji cells. In words: Assay B: SIRPα signalling assay using Raji cells. In kind it is cell-based. The following applies: Homo sapiens; Raji cells, 48 h compound incubation, PathHunter SIRPαV1 reporter cells; read-out: Inhibition of SIRPα signalling induced by Raji cells: IC50. As for the experimental part: (§1) Two cell types are independently used: the Raji cell line (lymphoblast-like human cell line derived from B lymphocytes from a Burkitt's lymphoma patient in 1963) and A549 cells (adenocarcinomic human alveolar basal epithelial cells).
(§2) Test compounds were dissolved in 100% DMSO and serially diluted into a white 384-well microtiter cell culture plate (PerkinElmer #60076780 in case of Raji assay; PDL-coated plates Greiner #781945 in case of A549 assay). 5000 Raji cells (ATCC #CC86) or 5000 A549 cells (ATCC #CCL-185) in Assay Complete Cell Plating reagent 30 (DiscoverX 93-0563R30B) were added per well. The assay plate was incubated for 48 h at 37° C., 95% humidity and 5% CO2. 15000 reporter cells (Jurkat PathHunter SIRPαV1, DiscoverX #93-1135C19) were added to each well, and the plate was incubated for 5 h at 37° C., 95% humidity and 5% CO2. Bioassay reagent 1 of the PathHunter Bioassay detection kit (DiscoverX 93-0001) was added to each well of the plate using a multichannel pipette followed by a 15 min incubation at room temperature. Afterwards bioassay reagent 2 was added followed by 60 min incubation at room temperature (incubation in the dark). The analysis of the data was performed using the luminescence signal generated by beta-galactosidase in the PathHunter reporter cell line. The luminescence measurement was done using a Pherastar Multi-Mode Reader. Dose-response curves & IC50 data were calculated with 4-parameter sigmoidal dose response formula.

Another series concerns the target T1, QPCT (Homo sapiens, UniProt Q16769).
T1 construct: purchased Origine (OriGene) TP700028
Briefly: Assay A: biochemical QPCT activity assay (MALDI-TOF MS, CD47 peptide substrate). The following applies: 0.5 nM enzyme, 20 μM CD47 peptide substrate; read-out: Inhibition of QPCT: IC50. As for the experimental part: (§3) QPCT or QPCTL dependent conversion of N-terminal glutamine to pyroglutamate of CD47 was monitored via MALDI-TOF MS. Test compounds were dissolved in 100% DMSO and serially diluted into clear 1,536-well microtiter plates. Enzymatic reactions were set up in assay buffer containing 20 mM Tris pH 7.5, 0.1 mM TCEP, 0.01% BSA, and 0.001% Tween20. […] The plates were incubated for 10 min in a humidified incubator at 24° C. Subsequently, 2.5 μL of CD47 peptide substrate surrogate (^19[…]^33) was added to each well (final concentration: 10 μM for QPCTL/20 μM for QPCT). The plates were mixed for 30 sec at 1,000 rpm and subsequently incubated for 40 min in a humidified incubator at 24° C. […] The plates were sealed with an adhesive foil, mixed for 30 s at 1,000 rpm and stored at room temperature until preparation of the MALDI target plates. […] QPCT or QPCTL activity was monitored by calculating the ratio between product and internal standard signals followed by normalization to high (100% activity) and low (0% activity) controls. Determination of compound potencies was obtained by fitting the dose-response data to a four-parameter logistical equation.

Series [3] deals with SIRPα signalling induced by A549 cells. Briefly: Assay B: SIRPα signalling assay using A549 cells. In kind it is cell-based. The following applies: Homo sapiens; A549 cells, 48 h compound incubation, PathHunter SIRPαV1 reporter cells; read-out: Inhibition of SIRPα signalling induced by A549 cells: IC50. As for the experimental part: as §1, §2
Another series addresses T2, QPCTL (Homo sapiens, UniProt Q9NXS2).
T2 construct: made in house
In words: Assay A: biochemical QPCTL activity assay (MALDI-TOF MS, CD47 peptide substrate). The following applies: 0.5 nM enzyme, 10 μM CD47 peptide substrate; read-out: Inhibition of QPCTL: IC50. Here is the method: as §3

The structures appear in SMILES notation.

T1 sequence (Q16769 29-361): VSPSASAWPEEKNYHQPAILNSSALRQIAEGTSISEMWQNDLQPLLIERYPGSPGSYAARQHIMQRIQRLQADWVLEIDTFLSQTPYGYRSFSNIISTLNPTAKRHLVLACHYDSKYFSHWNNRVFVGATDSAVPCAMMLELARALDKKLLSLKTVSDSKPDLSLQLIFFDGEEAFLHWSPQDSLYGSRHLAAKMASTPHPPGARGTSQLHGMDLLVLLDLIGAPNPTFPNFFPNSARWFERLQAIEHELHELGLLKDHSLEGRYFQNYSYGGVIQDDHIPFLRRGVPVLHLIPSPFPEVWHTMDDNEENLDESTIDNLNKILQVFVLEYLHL
T2 sequence (Q9NXS2 whole entry): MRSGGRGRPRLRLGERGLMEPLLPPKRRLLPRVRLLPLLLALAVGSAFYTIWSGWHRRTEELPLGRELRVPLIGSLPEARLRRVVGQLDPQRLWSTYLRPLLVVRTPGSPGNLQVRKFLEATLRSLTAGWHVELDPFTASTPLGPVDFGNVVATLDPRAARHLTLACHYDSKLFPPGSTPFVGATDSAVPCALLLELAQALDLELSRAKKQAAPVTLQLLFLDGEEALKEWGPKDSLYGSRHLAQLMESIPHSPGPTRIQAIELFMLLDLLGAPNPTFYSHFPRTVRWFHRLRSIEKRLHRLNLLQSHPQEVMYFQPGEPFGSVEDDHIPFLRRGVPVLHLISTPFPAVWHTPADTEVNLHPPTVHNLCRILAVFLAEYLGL

In general, efflux ratio refers to a quotient of directional permeabilities that is used to spot active efflux. As usually defined, the Papp A→B is how fast a substance crosses the layer from the apical side. Lower therefore signals slow passage. Broadly, the IC50 is the point on the concentration scale where inhibition reaches its midpoint. Turning to `C[C@H]1C[C@H](c2nncn2C)CCN1c1c(C#N)ccnc1-c1ccnnc1` [Example 6, 3-[(2S,4R)-2-methyl-4-(4-methyl-4H-1,2,4-triazol-3-yl)piperidin-1-yl]-2-(pyridazin-4-yl)pyridine-4-carbonitrile], the efflux ratio at 2 h in series [1] was 8.4. The Papp A→B at 2 h in series [1] came to 0.2 ×10⁻⁶ cm/s. Further, the half-maximal inhibitory concentration (IC50) in series [2] amounted to 540 nM; on QPCT, 3 nM; in series [3], 551 nM; at QPCTL it was 2 nM.
With `Cn1cnnc1[C@@H]1CCN(c2c(C#N)cc(C(F)(F)F)nc2-c2cnc3nn(C(C)(C)C)cc3c2)[C@H](C2CC2)C1` [Example 7, 2-{2-tert-butyl-2H-pyrazolo[3,4-b]pyridin-5-yl}-3-[(2S,4R)-2-cyclopropyl-4-(4-methyl-4H-1,2,4-triazol-3-yl)piperidin-1-yl]-6-(trifluoromethyl)pyridine-4-carbonitrile], the efflux ratio at 2 h in series [1] came to 23.5. For the same compound, the Papp A→B at 2 h in series [1] is 2 ×10⁻⁶ cm/s. Further, the IC50 in series [2] turned out to be 9 nM; at QPCT, 1 nM; in series [3], 12 nM; on QPCTL it was 1 nM.
As for `Cn1cnnc1[C@@H]1CCN(c2c(C#N)cc(C(F)(F)F)nc2-c2ccc(F)nc2)[C@H](C2CC2)C1` [Example 8], the efflux ratio at 2 h in series [1] stood at 3.3. This compound registered an apparent permeability from apical to basolateral (Papp A→B) at 2 h in series [1] of 22 ×10⁻⁶ cm/s. Also, the concentration for half-maximal inhibition (IC50) in series [2] stood at 47 nM; at QPCT, 6 nM; in series [3], 47 nM; on QPCTL it was 1 nM.
Consider `CC[C@@H]1C[C@H](c2nncn2C)CCN1c1c(C#N)cc(C(F)(F)F)nc1-c1ccc(F)nc1` [Example 9], for which the efflux ratio at 2 h in series [1] amounted to 3.8. This compound also had a Papp A→B at 2 h in series [1] of 22 ×10⁻⁶ cm/s. For the same compound, the IC50 in series [2] was found to be 325 nM; on QPCT, 50 nM; in series [3], 109 nM; at QPCTL, 18 nM.
As for `C[C@@H]1C[C@H](c2nncn2C)CCN1c1c(C#N)cc(C(F)(F)F)nc1-c1ccc(F)nc1` [Example 10, 6′-fluoro-3-[(2R,4R)-2-methyl-4-(4-methyl-4H-1,2,4-triazol-3-yl)piperidin-1-yl]-6-(trifluoromethyl)-[2,3′-bipyridine]-4-carbonitrile], the efflux ratio at 2 h in series [1] was 5.8. For the same compound, the apparent permeability from apical to basolateral (Papp A→B) at 2 h in series [1] turned out to be 7.8 ×10⁻⁶ cm/s. The IC50 in series [2] amounted to 1100 nM; on QPCT it was 23 nM; in series [3], 111 nM; on QPCTL, 10 nM.
With `C[C@@H]1C[C@](F)(c2nncn2C)CCN1c1c(C#N)ccnc1-c1ccc(F)nc1` [Example 13], the efflux ratio at 2 h in series [1] was 2.4. In addition, the Papp A→B at 2 h in series [1] stood at 22 ×10⁻⁶ cm/s. Further, the concentration for half-maximal inhibition (IC50) was 301 nM in series [2], 14 nM on QPCT, 236 nM in series [3] and 6 nM at QPCTL.
As for `C[C@@H]1C[C@](F)(c2nncn2C)CCN1c1c(C#N)cc(C(F)(F)F)nc1-c1ccc(F)nc1` [Example 14], the efflux ratio at 2 h in series [1] was 1.2. In series [1], the apical-to-basolateral permeability (Papp A→B) at 2 h was determined as 58 ×10⁻⁶ cm/s. In addition, the IC50 in series [2] was 621 nM; on QPCT it was 24 nM; in series [3], 232 nM; at QPCTL it was 16 nM.
In the case of `C[C@@H]1C[C@](F)(c2nncn2C)CCN1c1c(C#N)cc(C(F)(F)F)nc1-c1ccnnc1` [Example 15], the efflux ratio at 2 h in series [1] was determined as 9.4. The compound further returned a Papp A→B at 2 h in series [1] of 3.3 ×10⁻⁶ cm/s. Further, the IC50 in series [2] turned out to be 837 nM; on QPCT, 24 nM; in series [3], 486 nM; at QPCTL it was 14 nM.
For the compound `C[C@@H]1C[C@](F)(c2nncn2C)CCN1c1c(C#N)cc(C(F)(F)F)nc1-c1cnc2nn(C(C)(C)C)cc2c1` [Example 16], the efflux ratio at 2 h in series [1] amounted to 7.1. This compound also came in with a Papp A→B at 2 h in series [1] of 9.2 ×10⁻⁶ cm/s. The IC50 in series [2] worked out at 124 nM; on QPCT it was 5 nM; in series [3], 74 nM; on QPCTL it was 7 nM.
